Earlier results on 2 molecules are cited in patent publication US20070065374A1, “Nanoparticulate leukotriene receptor antagonist/corticosteroid formulations” (Elan Pharma International Limited, priority 2005, published 2007).

Read-outs that look alike come from different tables or passages of the source.

The conditions of data set [1]: for time to peak plasma concentrations: after oral administration.
For data set [2] the following is noted: since the approval of zafirlukast.

On to `CC(C)(O)c1ccccc1CC[C@@H](SCC1(CC(=O)O)CC1)c1cccc(/C=C/c2ccc3ccc(Cl)cc3n2)c1` [Montelukast], for which the “effect of food on oral bioavailability” value in data set [1] (5 mg tablet (pediatric dose)) is “reduced by food”; in data set [1] (10 mg tablet (adult dose)) it was “unaffected by food”. Further, the “time to peak plasma concentrations” value in data set [1] is “approximately three”.
Take `COc1cc(C(=O)NS(=O)(=O)c2ccccc2C)ccc1Cc1cn(C)c2ccc(NC(=O)OC3CCCC3)cc12` [Zafirlukast]: the “time to peak plasma concentrations” value in data set [1] is on record as “approximately three”. In addition, the “reduction of bioavailability by food” value in data set [1] (oral, in 75% of patients) is recorded as “approximately 40%”. In addition, the Churg-Strauss syndrome reported entry in data set [2] was “at least eight”.
